Molecular target: T1, Nuclear receptor subfamily 1 group I member 2 (Homo sapiens, UniProt O75469)
T1 sequence (O75469 whole entry): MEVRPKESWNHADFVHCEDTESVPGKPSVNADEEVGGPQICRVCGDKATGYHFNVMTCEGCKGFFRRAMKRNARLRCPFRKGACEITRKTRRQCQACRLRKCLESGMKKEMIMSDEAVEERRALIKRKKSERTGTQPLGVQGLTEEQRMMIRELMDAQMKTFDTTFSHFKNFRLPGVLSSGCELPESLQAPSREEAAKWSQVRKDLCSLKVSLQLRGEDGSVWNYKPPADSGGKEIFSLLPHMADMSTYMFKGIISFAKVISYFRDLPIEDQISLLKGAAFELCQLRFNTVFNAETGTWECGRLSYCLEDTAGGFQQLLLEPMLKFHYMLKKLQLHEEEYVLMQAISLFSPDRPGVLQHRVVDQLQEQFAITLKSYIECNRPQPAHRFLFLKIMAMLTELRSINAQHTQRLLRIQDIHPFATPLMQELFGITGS
Experiment: Agonist activity at His-tagged PXR-LBD/SRC-1p (unknown origin) expressed in Escherichia coli BL21(DE3) by coactivator recruitment based Alpha-screen assay

EC50: 3.3 µM
Structure (SMILES): Cc1c(C)c2c(c(C)c1O)CC[C@@](C)(CCC[C@H](C)CCC[C@H](C)CCCC(C)C(=O)O)O2 (stereo partly specified)

From BindingDB's records for doi:10.1021/acs.jmedchem.0c00012 (University of Perugia, 2020)
